Test results taken from patent US9927444B2, “Bone marrow-derived hematopoietic progenitor cells and endothelial progenitor cells as prognostic indicators for cancer” (Cornell University, priority 2011, dated 2018).

Tests used:
[1] = tested on: serum ceruloplasmin (Cp); experiment: Serum ceruloplasmin (Cp) levels / copper depletion, phase II TM trial; format: in vivo, human
Description: (§1) This phase II, open-label, single-arm study was conducted to assess patients with breast cancer at high risk for relapse. Patients were enrolled on an Institutional Review Board approved trial (NCT00195091, 0903-882, 0309006307) at Weill Cornell Medical College (WCMC) Iris Cantor Breast Cancer Center. Written informed consent was obtained prior to undergoing any study-specific procedures in accordance with the Declaration of Helsinki.
TM was administered in two phases, induction and maintenance: A) Induction: Patients self-administered TM 180 mg by mouth daily in 4 divided doses until serum Cp levels decreased to a target range of 5-16 mg/dL. One month of TM therapy comprised 1 cycle. Cp levels were tested every 2 weeks for the first 4 weeks and then weekly until target Cp was reached. When Cp levels were within target range, patients were switched to the maintenance phase. B) Maintenance: TM 100 mg taken daily in divided doses. Patients were followed every 2 weeks for 4 weeks to ensure Cp levels were stable then every 4 weeks. Dose reductions in 20 mg increments were allowed to minimize toxicity. Dose increases in 20 mg increments were allowed every 2 weeks to keep Cp levels in target range. […] Patients brought completed medication logs to each visit. The duration of the trial was 2 years.
The ITT population consisted of 39 patients. […] Target for copper depletion was defined as Cp below 17 mg/dL. Of those who took at least one dose of TM, 59% […] of patients were effectively copper depleted and 15 patients (37.5%) were unable to be copper depleted. Mean Cp of copper depleted pts and non-copper depleted patients was 13.5 and 22.3 mg/dL, respectively (FIG. 1a). Patients spent a median of 78% of time (range 58 to 100%) within target Cp levels during the study . . . . […] 91% of triple-negative patients successfully copper depleted compared to the hormone-receptor subtypes (38-43%) and HER2-positive subtypes (40-67%) (FIG. 7B).

[2] = tested on: VEGFR2+ endothelial progenitor cells (EPCs); experiment: Enumeration of circulating EPCs by flow cytometry, phase II TM trial; format: in vivo, human
Description: (§2) Ten to 20 mL of venous blood were collected in EDTA-containing tubes and processed within 12 hours. Peripheral blood mononuclear cells were isolated by Ficoll density-gradient centrifugation. To quantitate circulating EPCs, cells were stained with CD133-PE (Miltenyi Biotec, Auburn, Calif.), VEGFR2-APC (R&D Systems, Minneapolis, Minn.), and CD45-PerCP (BD Biosciences, Franklin Lakes, N.J.). To quantitate HPCs, cells were stained with CD34-FITC (BD Biosciences), VEGFR1-APC (R&D Systems), and CD45-PerCP (BD Biosciences). An aliquot of cells was also stained with the appropriate isotype controls (mouse anti-human IgG1k). Samples were analyzed using a FACSCalibur flow cytometer (Bectin Dickinson, San Jose, Calif.). Three hundred thousand events were collected in the nucleated cell gate (excludes debris and platelets). Data analysis was done using FlowJo software (FlowJo, Ashland, Oreg.). A series of consecutive gates were made to include and exclude acquired events to quantitate specific populations such as CD45^+, CD34^+, VEGFR1^+. The number of EPCs and HPCs per mL of blood was calculated as follows: HPC/mL=(# HPC events/# lymphocyte events)×absolute lymphocyte count (lymphocytes/mL). EPC/mL=(# EPC events/# lymphocyte events)×absolute lymphocyte count (lymphocytes/mL). HPCs were defined as CD45^+, CD34^+, VEGFR1^+ (FIGS. 5A-5C). […]
(§3) PFS was analyzed using survival analysis techniques.

[3] = tested on: VEGFR1+ hematopoietic progenitor cells (HPCs); experiment: Enumeration of circulating HPCs by flow cytometry, phase II TM trial; format: in vivo, human; conditions: patients on TM
Description: as §2, §3

[4] = tested on: breast cancer at high risk for relapse; experiment: Clinical outcomes (relapse, progression-free survival), phase II TM trial; format: in vivo, human
Description: as §1
Patients underwent imaging of investigator's choice, CT of chest, abdomen, and pelvis or PET/CT every 6 months and as needed to assess for relapse, using Response Evaluation Criteria in Solid Tumors (RECIST).
as §3

[5] = tested on: SDF1, VEGFR2, C-kit; experiment: Plasma angiogenic factors and cytokine profiling, phase II TM trial; format: in vivo, human
Description: Plasma SDF-1 was detected by enzyme-linked immunosorbent assay (R&D Systems) according to manufacturer's protocol. Plasma levels of c-kit, VEGF, VEGFR1, VEGFR2, bFGF, and PIGF were detected by multiplex assay (Meso Scale Discovery, Gaithersburg, Md.) per manufacturer protocol.
as §3

[6] = in vivo
Description: (§4) The National Cancer Institute—Common Toxicity Criteria for Adverse Events (CTCAE) version 3.0 were used for toxicity and adverse event reporting. In the event of grade 3/4 toxicity, dosing was held until recovery. Treatment was resumed at the investigator's discretion at 50% of the previous dose. […] In the event of grade 2 toxicity, the dose of TM was held until recovery and a new cycle could be initiated at 100%. If grade 2 toxicity recurred, dosing was held until recovery and the next cycle was resumed at 50%. All patients were available to be evaluated for toxicity.
(§5) The intent-to-treat (ITT) population consisted of all patients who received at least one dose of TM. […] The following outcomes were recorded: toxicity attributable to TM, time to progression of disease, number of circulating hemangiogenic progenitor cells, serum markers of angiogenesis. Descriptive statistics for demographic and angiogenic variables were calculated for all patients. […] All p-values were two-sided with statistical significance evaluated at the 0.05 alpha level. All analyses were performed in SPSS Version 18.0 (SPSS Inc., Chicago, Ill.).

[7] = tested on: advanced malignancy refractory to standard therapy; conditions: phase I; cited from earlier work
[8] = tested on: advanced renal cell carcinoma; conditions: 13 patients; cited from earlier work
[9] = tested on: malignant mesothelioma; conditions: after adjuvant TM; doubling from 10; cited from earlier work
[10] = reversible, managed with dose reductions; cited from earlier work
[11] = stored under argon; cited from earlier work
[12] = Safety and tolerability (CTCAE version 3.0), phase II TM trial
Description: as §4, §5

For `[SH-].[SH-].[S]=[Mo]=[S]` [TM, Tetrathiomolybdate], the “patients unable to be copper depleted” value ([1]; 15 patients) was 37.5%, the “patients successfully copper depleted” value ([1]; HER2-positive subtypes) was 40-67% and the “mean Cp level on TM” value ([1]; ITT population, at a median of 4 weeks, median baseline Cp 29.7 mg/dL (range 21 to 47), range 7 to 26) was 14.2 mg/dL. The “mean Cp of copper depleted pts” value ([1]; copper depleted patients) was 13.5 mg/dL, the “patients successfully copper depleted” value ([1]; hormone-receptor subtypes) was 38-43% and the “mean Cp of non-copper depleted patients” value ([1]; non-copper depleted patients) was 22.3 mg/dL. The “median % of time within target Cp levels during the study” value ([1]; range 58 to 100%) was 78%, the “patients effectively copper depleted” value ([1]; those who took at least one dose of TM, target Cp below 17 mg/dL, printed 23/40) was 59% and the “patients successfully copper depleted” value ([1]; triple-negative patients) was 91%. The “median number of EPCs” value ([2]; at 1 year of TM therapy, median baseline 0.0398 (range 0-0.21), range 0-0.18) was 0.0363 cells/uL, the “EPCs relative to baseline” value ([2]; majority of patients, when Cp was in the target range) was “maintained below baseline” and the “change in HPCs” value [3] was “no significant changes”. For the same molecule, the “10-month PFS” value ([4]; all patients, 95% CI, 74.6-96.8%) was 85.0%, the “patients who developed recurrence” value ([4]; first 12 months of study, six patients) was 15% and the “10-month PFS” value ([4]; hormone-receptor-positive patients) was 85.7%. For the same molecule, the “10-month PFS” value ([4]; stage 2 and 3 patients) was 89.3%, the “10-month PFS” value ([4]; stage 4 NED patients) was 75.0% and the “10-month PFS” value ([4]; triple-negative patients) was 81.8%. The “mean SDF1” value ([5]; non-relapsed patients, decreased from 1870) was 1811 pg/mL, the “change in SDF1, VEGFR2, and C-kit” value ([5]; patients while on therapy) was “did not significantly change” and the “mean SDF1” value ([5]; patients who relapsed, increased from 2093) was 3052 pg/mL. For the same molecule, the treatment-related deaths [6] was “no treatment-related deaths”, the “induction of copper depletion” value [7] was “effective at inducing copper depletion” and the “patients maintaining stable disease for at least 90 days” value [7] was 15 of 40. The tolerability [7] was “well-tolerated”, the “median duration of stable disease” value [8] was 34.5 weeks and the time to progression [9] was 20 months. For the same molecule, the “patients with grade 3 or 4 hematologic toxicity” value [10] was “up to 40%”, the “stability when exposed to air” value [11] was 8 weeks and the “grade 3 anemia, cycles” value ([12]; 1 cycle, patient later diagnosed with B12 deficiency) was 0.2%. The “patients with dose interruptions, delays, reductions, or omissions due to toxicity” value ([12]; 3 of 39 ITT patients) was 7.7%, the “grade 1 peripheral neuropathy, cycles” value ([12]; 6 cycles) was 1.4% and the “grade ¾ neutropenia, patients” value ([12]; 9 patients) was 23.1%. For the same molecule, the “grade ¾ neutropenia, cycles” value ([12]; 13 cycles) was 3.1%, the “grade ½ anemia, patients” value ([12]; 14 patients) was 35.9% and the “grade ½ neutropenia, patients” value ([12]; 23 patients) was 59.0%. The “grade 1 fatigue, cycles” value ([12]; 29 cycles) was 6.8%, the “grade ½ anemia, cycles” value ([12]; 50 cycles) was 11.7% and the “grade ½ neutropenia, cycles” value ([12]; 67 of 426 cycles) was 15.7%. The “sulfurous eructations, cycles” value ([12]; 79 cycles, resolved with a PPI in >90% of patients) was 18.5%, the overall tolerability ([12]; 426 cycles in 39 patients, first 12 months) was “well tolerated” and the “grade 3 or 4 non-hematologic toxicity” value ([12]; in vivo) was “no grade 3 or 4 non-hematologic toxicity”. For the same molecule, the “grade 4 anemia” value ([12]; in vivo) was “no grade 4 incidences” and the “grade 1 or 2 gastrointestinal toxicity (nausea, vomiting or diarrhea)” value ([12]; managed with dose adjustment alone) was “Eight”.
